What was measured:
Experiment in all cases: Cysteine liganding, probe competition
Format in all cases: binding
[1] = target: T1, TAPBP Tapasin (Homo sapiens, UniProt O15533)
T1 construct: Cells were resuspended in cold PBS on ice and sonicated with a probe sonicator to achieve lysis; endogenous in cells
T1 sequence (O15533 21-448): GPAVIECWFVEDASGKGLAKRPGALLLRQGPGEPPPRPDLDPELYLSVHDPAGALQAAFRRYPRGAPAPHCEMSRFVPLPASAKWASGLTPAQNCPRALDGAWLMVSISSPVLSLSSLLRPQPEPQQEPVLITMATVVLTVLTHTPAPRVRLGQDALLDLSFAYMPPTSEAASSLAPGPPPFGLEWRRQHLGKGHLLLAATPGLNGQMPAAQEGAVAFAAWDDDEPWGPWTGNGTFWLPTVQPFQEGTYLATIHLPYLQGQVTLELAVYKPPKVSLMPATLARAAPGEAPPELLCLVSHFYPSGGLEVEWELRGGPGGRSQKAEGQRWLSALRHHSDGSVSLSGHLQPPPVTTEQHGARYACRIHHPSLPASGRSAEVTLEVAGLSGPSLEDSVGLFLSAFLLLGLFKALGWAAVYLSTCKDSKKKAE
Method in brief: (§1)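 Steps: sonicate cells in cold PBS; treat 5 mg/ml lysate with compound (25° C, 1 hr); add desthiobiotin iodoacetamide probe from a 10 mM stock (25° C, 1 hr); precipitate, reduce, alkylate, digest with trypsin; capture labelled peptides on streptavidin for analysis.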

[2] = target: T2, HECTD1 E3 ubiquitin-protein ligase HECTD1 (Homo sapiens, UniProt Q9ULT8)
T2 construct: Cells were resuspended in cold PBS on ice and sonicated with a probe sonicator to achieve lysis; endogenous in cells
T2 sequence (Q9ULT8 whole entry): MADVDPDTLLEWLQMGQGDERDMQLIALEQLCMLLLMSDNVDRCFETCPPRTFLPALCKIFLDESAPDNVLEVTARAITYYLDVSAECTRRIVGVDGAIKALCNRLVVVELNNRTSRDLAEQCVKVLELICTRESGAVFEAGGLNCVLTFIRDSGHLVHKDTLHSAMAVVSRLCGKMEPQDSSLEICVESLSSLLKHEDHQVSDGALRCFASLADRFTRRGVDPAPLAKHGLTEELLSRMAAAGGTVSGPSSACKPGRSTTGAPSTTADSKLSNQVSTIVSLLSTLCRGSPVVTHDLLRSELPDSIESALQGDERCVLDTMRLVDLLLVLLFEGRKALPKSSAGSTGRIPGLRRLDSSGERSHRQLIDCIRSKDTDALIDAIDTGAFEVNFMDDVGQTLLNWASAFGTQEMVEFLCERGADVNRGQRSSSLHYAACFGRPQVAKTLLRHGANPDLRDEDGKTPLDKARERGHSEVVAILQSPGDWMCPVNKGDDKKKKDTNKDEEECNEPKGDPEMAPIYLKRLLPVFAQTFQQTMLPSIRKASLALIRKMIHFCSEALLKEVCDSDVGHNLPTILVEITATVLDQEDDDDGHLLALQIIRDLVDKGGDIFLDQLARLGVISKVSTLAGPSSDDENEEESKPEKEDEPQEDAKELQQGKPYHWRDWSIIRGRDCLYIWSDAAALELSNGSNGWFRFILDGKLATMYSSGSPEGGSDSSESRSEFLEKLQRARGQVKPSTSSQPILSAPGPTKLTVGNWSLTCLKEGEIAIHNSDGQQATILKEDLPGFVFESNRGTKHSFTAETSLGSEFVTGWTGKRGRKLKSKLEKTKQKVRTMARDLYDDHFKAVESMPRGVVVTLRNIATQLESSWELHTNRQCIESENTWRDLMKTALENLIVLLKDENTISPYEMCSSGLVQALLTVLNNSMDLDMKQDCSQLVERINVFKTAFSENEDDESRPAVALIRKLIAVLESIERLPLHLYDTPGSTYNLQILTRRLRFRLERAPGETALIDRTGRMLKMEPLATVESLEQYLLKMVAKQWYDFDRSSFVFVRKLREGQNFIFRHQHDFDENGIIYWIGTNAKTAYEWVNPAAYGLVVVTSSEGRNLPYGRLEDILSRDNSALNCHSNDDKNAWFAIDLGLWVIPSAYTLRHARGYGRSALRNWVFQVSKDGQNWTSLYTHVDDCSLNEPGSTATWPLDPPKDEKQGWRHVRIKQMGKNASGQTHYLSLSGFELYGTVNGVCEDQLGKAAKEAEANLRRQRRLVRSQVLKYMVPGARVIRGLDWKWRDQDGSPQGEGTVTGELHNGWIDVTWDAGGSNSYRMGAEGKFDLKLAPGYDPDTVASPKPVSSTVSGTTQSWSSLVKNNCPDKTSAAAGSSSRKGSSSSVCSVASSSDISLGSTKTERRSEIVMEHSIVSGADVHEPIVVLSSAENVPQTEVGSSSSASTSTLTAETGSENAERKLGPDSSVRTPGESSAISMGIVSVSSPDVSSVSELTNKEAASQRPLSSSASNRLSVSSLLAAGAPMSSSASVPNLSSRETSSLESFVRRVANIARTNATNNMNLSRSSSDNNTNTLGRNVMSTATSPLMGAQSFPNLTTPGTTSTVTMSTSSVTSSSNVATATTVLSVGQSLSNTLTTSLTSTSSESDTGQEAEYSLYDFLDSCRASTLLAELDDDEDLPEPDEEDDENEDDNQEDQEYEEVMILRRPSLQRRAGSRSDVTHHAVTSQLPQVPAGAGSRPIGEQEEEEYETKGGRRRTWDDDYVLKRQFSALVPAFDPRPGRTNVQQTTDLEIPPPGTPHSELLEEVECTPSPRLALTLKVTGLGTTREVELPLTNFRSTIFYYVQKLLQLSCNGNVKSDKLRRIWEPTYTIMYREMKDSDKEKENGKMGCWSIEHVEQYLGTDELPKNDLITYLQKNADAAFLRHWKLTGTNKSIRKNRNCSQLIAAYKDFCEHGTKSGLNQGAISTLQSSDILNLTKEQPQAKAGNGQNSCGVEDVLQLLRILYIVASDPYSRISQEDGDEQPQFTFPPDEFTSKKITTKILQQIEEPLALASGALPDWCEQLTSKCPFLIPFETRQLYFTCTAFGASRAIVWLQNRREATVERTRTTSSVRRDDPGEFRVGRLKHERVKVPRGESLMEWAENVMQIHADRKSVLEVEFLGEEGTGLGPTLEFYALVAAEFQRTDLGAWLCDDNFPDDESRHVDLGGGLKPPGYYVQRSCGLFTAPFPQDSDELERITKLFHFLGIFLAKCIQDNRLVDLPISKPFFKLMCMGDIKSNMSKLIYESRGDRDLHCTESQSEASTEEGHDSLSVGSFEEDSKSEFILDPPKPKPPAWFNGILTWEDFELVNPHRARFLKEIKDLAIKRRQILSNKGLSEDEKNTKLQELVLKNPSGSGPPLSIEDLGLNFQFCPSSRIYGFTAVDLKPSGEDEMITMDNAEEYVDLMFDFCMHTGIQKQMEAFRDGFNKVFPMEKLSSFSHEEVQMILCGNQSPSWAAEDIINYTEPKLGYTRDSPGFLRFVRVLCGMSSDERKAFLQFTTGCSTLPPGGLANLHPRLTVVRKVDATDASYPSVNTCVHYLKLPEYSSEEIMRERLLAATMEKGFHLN
Method in brief: as §1

[3] = target: T3, L2HGDH L-2-hydroxyglutarate dehydrogenase, mitochondrial (Homo sapiens, UniProt Q9H9P8)
T3 construct: Cells were resuspended in cold PBS on ice and sonicated with a probe sonicator to achieve lysis; endogenous in cells
T3 sequence (Q9H9P8 52-463): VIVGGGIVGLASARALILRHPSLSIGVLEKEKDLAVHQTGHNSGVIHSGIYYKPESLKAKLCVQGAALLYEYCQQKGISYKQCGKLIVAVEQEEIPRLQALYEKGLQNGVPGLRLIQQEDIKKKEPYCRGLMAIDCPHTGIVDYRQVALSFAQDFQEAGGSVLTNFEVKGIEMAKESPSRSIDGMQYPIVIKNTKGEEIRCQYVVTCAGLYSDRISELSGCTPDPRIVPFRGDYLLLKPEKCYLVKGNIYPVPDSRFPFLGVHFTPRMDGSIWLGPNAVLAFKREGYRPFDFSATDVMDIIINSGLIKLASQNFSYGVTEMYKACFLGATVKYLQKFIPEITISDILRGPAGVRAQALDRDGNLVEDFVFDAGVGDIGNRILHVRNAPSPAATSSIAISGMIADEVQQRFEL
Method in brief: as §1

SMILES	Liganded ([1]; TAPBP Res# 440, uniprot O15533)	Liganded ([2]; HECTD1 Res# 1855, uniprot Q9ULT8)	Liganded ([3]; L2HGDH Res# 187, uniprot Q9H9P8)	100 Max ([1]; uniprot O15533)	100 ave ([1]; uniprot O15533)	500 Max ([1]; uniprot O15533)	500 ave ([1]; uniprot O15533)	100 ave ([2]; uniprot Q9ULT8)	500 ave ([2]; uniprot Q9ULT8)	100 Max ([2]; uniprot Q9ULT8, unit assumed)	500 Max ([2]; uniprot Q9ULT8, unit assumed)	100 Max ([3]; uniprot Q9H9P8)	100 ave ([3]; uniprot Q9H9P8)	500 Max ([3]; uniprot Q9H9P8)	500 ave ([3]; uniprot Q9H9P8)
COc1ccc2c(c1)CCCN2C(=O)CCl [KB02]	YES	YES	YES	–	–	–	–	–	–	–	–	–	–	–	–
O=C(CCl)Nc1cc(C(F)(F)F)cc(C(F)(F)F)c1 [KBO3]	–	–	–	31.4264	28.54	68.7451	68.7451	0.1	72.6	1.2%	72.6%	39.03	26.9925	70.21	67.435

Source: US20200239530A1, “COMPOUNDS AND METHODS OF MODULATING PROTEIN DEGRADATION” (Vividion Therapeutics, Inc., priority 2017, published 2020)
